Assay results reported in article PMC7984827, “A high-content AlphaScreen™ identifies E6-specific small molecule inhibitors as potential therapeutics for HPV^+ head and neck squamous cell carcinomas” (Oncotarget, 2021).
Read-outs that look alike come from different tables or passages of the source.

Legend:
[1] = target: T1, E6-Caspase 8 binding (Human papillomavirus type 16, UniProt P03126); assay: biochemical; parameters: species or system HPV E6, human Caspase 8; conditions: for inhibitory activity against E6-caspase 8 binding relative to GA (in words): SAR of analogs, Figure 6A; for activity against E6-caspase 8 binding, deviation from the parent compound (less active): relative to gambogic acid
T1 construct: made in house; host or cells: E. coli
T1 sequence (P03126 whole entry): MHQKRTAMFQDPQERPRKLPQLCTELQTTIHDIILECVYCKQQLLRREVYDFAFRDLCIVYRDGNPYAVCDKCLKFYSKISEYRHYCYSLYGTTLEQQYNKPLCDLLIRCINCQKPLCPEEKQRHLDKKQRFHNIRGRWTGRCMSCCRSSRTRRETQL
Experimental: The compounds were diluted to a working concentration in DMSO and screened at a single-point final concentration of 10 μM with no replicates. Briefly, 75 nL of each compound was transferred and added to wells of the destination 384-well plate using the Echo dispenser to 4 μL of blocking solution. 4 μL of 800 nM GST-E6 and 4 μL of His6-Caspase 8 were added and pre-incubated at room temperature for 60 minutes. 8 μL of the donor and acceptor bead mixture (final concentration of 20 μg/ml) was then added. The plates were sealed and incubated for 4 hours at room temperature before the plates were read using the EnvisionTM Multi-Label plate reader (Perkin Elmer Inc.). […] A 10-point serial dilution of these compounds was done for dose-dependency reconfirmation. Dose response inhibition curves were constructed and IC50 calculated using GraphPad Prism using four parameter non-linear regression analysis.
The first counter-screen assay was based using the GST-His6 fusion peptide as the E6-binding partner instead of GST-E6-His6-Caspase 8. Hit candidate compounds from the primary screen were prepared using a 6-point serial dilution. Using an Echo dispenser, compounds were transferred to plates containing 4 μL of blocking buffer. 8 μL of 5 nM GST-His6 peptide substrate was then added. The mixture was pre-incubated at room temperature for 60 minutes. Glutathione donor and nickel chelate acceptor beads (final concentration 20 μg/mL) were added and incubated for another 60 minutes at room temperature. Dose-dependency of the compounds using GST-E6-His6-Caspase 8 was performed in parallel using the same protocol as in the primary screen. The signals were then read using the Envision™ plate reader.
(§1) Using the SciFinder and Zinc15 databases, we searched and identified several gambogic acid structural analogs. A subset of these analogues was commercially available and we purchased 8. The 8 analogs were obtained as follow: gambogenic amide (Enzo Life Sciences), gambogenic acid (Selleckchem), morellic acid (Aobious), 30-hydroxy gambogic acid (Quality Phytochemicals, LLC), acetyl gambogic acid (Microsource), and gambogin, neogambogic acid and isomorellinol (MolPort Natural Products). Additional gambogic acid was purchased from Tocris. The interactions of the analogues with E6-caspase 8 was tested using AlphaScreen™ technology using the same protocol as with the primary screen, and were compared to the parent compound. The effect on cell viability was also similarly done in HPV^+ and HPV^- cell lines via the MTT assay (see below) and potency was determined using GraphPad IC50 curve fitting.

[2] = target: T2, E6-E6AP binding (Human papillomavirus type 16, UniProt P03126); assay: biochemical; parameters: species or system HPV E6
T2 construct: made in house; host or cells: E. coli
T2 sequence (P03126 whole entry): as above
Excerpt: Compounds that passed the two counter-screens were subjected to cheminformatic analysis as an additional filter for recognition and exclusion of compounds with problematic substructures. These substructures contain functional groups that may disrupt binding in many unrelated biochemical assays in a non-specific manner. Specifically, from the names and SMILES of the hit compounds we queried the following databases to find hits with pan assay interference (PAINS) patterns: Zinc15, SwissADME, FAFdrugs4 and PAINS-Remover. Compounds that made it onto the consensus list as having no PAINS patterns after filtering with these online tools were then selected. We then cross-validated the selected compound(s) with a related but different primary screen assay. Specifically, we replaced the caspase 8 used in the primary screen with E6AP and evaluated the inhibitory activity against E6 binding to E6AP (E6-E6AP) using the same steps as in the AlphaScreen™ protocol described above.

[3] = system: HPV+ HNSCC cell line SCC104; assay: MTT cell viability assay of analogs in SCC104; assay type: cell-based; conditions: SCC104, 24 hr; for activity / potency in cell-based MTT assay (in words): Figure 6B
Excerpt: as §1
(§2) All working concentrations were diluted in PBS to the desired concentration before use. To test the effect of gambogic acid and/or its derivatives on cell viability, all cell lines were seeded at 2 × 10^4 per well in 96-well plates and allowed to adhere overnight. Various concentrations of the analogues were added and the cells incubated at 37°C for 24 hr. Viability was then measured using the MTT assay, performed as described previously. All experiments were repeated at least three times (three biological replicates, carried out on different days). Data presented are from a representative experiment. Cell viability and potency were assessed from % inhibition relative to the vehicle control, and IC50 dose curves were generated using GraphPad Prism.

[4] = system: SCC104 (HPV+); assay: Colony formation assay, SCC104; assay type: cell-based; conditions: 24 hours treatment then seeded
Experimental: (§3) Sub-confluent monolayer cells were treated with different doses of GA-OH for 24 hours. Cells were trypsinized and re-suspended before re-plating into 6 well plates in DMEM or MEM at 500–1000 cell densities, depending on the cell line. Cells were then allowed to grow for 10–20 days, depending on the cell line, before fixing and staining. A mixture of methanol/acetic acid was used for fixing, followed by 0.5% crystal violet staining. Plates were imaged using UV imager, and colonies with more than […] counted using image J. Surviving fractions were determined by dividing the number of colonies by the number of cells seeded as a product of the corresponding plating efficiency. Survival fractions curves were plotted using GraphPad Prism.

[5] = system: SCC19 (HPV-); assay: Colony formation assay, SCC19; assay type: cell-based; conditions: 24 hours treatment then seeded
Experimental: as §3

[6] = system: p53, p21, caspase 8 in SCC90 and SCC104 cells; assay: Western blotting of p53, p21 and caspase 8 in HPV+ cells; assay type: cell-based; conditions: 24 hours
Experimental: Adherent cells were washed with ice cold PBS. Cell lysis buffer containing protease inhibitor cocktail was added and cells were scraped off into a tube on ice. The cells were incubated on ice for 10 minutes. Cell lysates were separated by SDS-PAGE and electrophoretically transferred to PVDF membranes. Following blocking, antibodies directed against caspase 8, p53, cleaved PARP, cleaved caspase 3, p21, and β-actin (Cell signaling) were applied at 1:5000 dilution. Anti-mouse and anti-rabbit secondary antibodies were then employed (LI-COR Biosciences, Lincoln, NE, USA). Signals were measured using the Odyssey Infrared Imaging system (LI-COR Biosciences) and quantified using Image J.

[7] = system: HPV+ (SCC47, SCC090, SCC104, SCC152) and HPV- (SCC19, SCC29, SCC49, SCC84) HNSCC cell lines; assay: MTT cell viability, HNSCC cell line panel; assay type: cell-based; conditions: 24 hr, Figure 7A
Experimental: as §2

[8] = system: Caspase 3/7 activity in SCC090, SCC104, SiHa; assay: Caspase 3/7 Glo activity assay, HPV+ cell lines; assay type: cell-based; conditions: 0.75 μM, 24 hr
Experimental: (§4) Cells were seeded into white walled 96-well plates at 2 × 10^4 cells per well in 100 μL media and incubated overnight. GA-OH (0.75 μM) and vehicle were then added and incubated at 37°C for 24 hr. Caspase 3/7 activity was measured using the Caspase 3/7 Glo kit (Promega, Fitchburg, WI, USA) following the manufacturer's instructions. Briefly, room temperature-equilibrated Caspase-Glo reagent was added (Promega) to each well. The plate was mixed by placing it on an orbital shaker and incubated for 30 secs at room temperature, then incubated at room temperature. After a 2-hr incubation, luminescence was measured using a plate-reading fluorimeter (Flx800, Bio-Tek Instrument Co., Winooski, VT, USA). Background activity (blank reaction) was subtracted from all experimental wells. Percent activity of caspase 3/7 in wells treated with GA was then expressed relative to vehicle treated wells.

[9] = system: Caspase 3/7 activity in SCC19, SCC84; assay: Caspase 3/7 Glo activity assay, HPV- cell lines; assay type: cell-based; conditions: 0.75 μM, 24 hr
Experimental: as §4

[10] = parameters: method as in PMID 18384990, PMID 29077076; conditions: toxicities to organs only at high concentrations; cited from earlier work

## O=c1c(O)c(-c2cc(O)c(O)c(O)c2)oc2cc(O)cc(O)c12 [myricetin, reference compound]
[1]; IC50 against E6-Caspase 8
  IC50: 4.6 µM
[2]
  IC50: 5.6 µM

## CC(C)=CCCC1(C)C=Cc2c(O)c3c(c(CC=C(C)C)c2O1)OC12C(=CC4CC1C(C)(C)OC2(CC=C(CO)C(=O)O)C4=O)C3=O (stereo not drawn) [GA-OH, 30-hydroxygambogic acid]
[1]
  inhibitory activity against E6-caspase 8 binding relative to GA (in words): more effectively inhibited E6 binding to caspase 8 than any of the other analogs or the parent compound
[3]
  activity / potency in cell-based MTT assay (in words): highest potency of all analogs
[4]
  number of colonies: significantly and dose-dependently reduced
[5]
  number of colonies: did not exhibit significant reduction relative to their control except at high concentrations
[6]; HPV+ cells, 0.5 μM and 1 μM
  caspase 8 cleavage by western blot: cleavage of caspase 8 in a dose-dependent manner
[6]; SCC90 and SCC104, 0.5 μM and 1 μM
  p53 level by immunoblotting: increase of p53
[6]; compared to vehicle control, 0.5 μM and 1 μM
  p21 level by immunoblotting: robust induction
[7]
  sensitivity of HPV+ versus HPV- HNSCC cell lines, MTT cell viability: higher sensitivity
[8]
  apoptosis induction (Caspase 3/7 activity): Significant apoptosis induction
[9]
  apoptosis activity (Caspase 3/7 activity): little to no apoptosis activity

## CC(=O)Oc1c2c(c(CC=C(C)C)c3c1C(=O)C1=C[C@@H]4CC5C(C)(C)OC(C/C=C(\C)C(=O)O)(C4=O)[C@@]15O3)OC(C)(CCC=C(C)C)C=C2 (stereo partly drawn) [analog #8, acetyl iso-gambogic acid]
[1]
  inhibitory activity against E6-caspase 8 binding relative to GA (in words): did not significantly affect the activity
[3]
  activity / potency in cell-based MTT assay (in words): diminished activity

## CC(C)=CCCC1(C)C=Cc2c(O)c3c(c(CC=C(C)C)c2O1)O[C@]12C(=CC4C[C@H]1C(C)(C)OC2(CC=C(C)C)C4=O)C3=O (stereo partly drawn) [analog #6, gambogin]
[1]
  activity against E6-caspase 8 binding, deviation from the parent compound (less active): > 3 logs
[3]
  rank of highest IC50 relative to the parent compound, MTT: first

## CC(C)=CCc1c2c(c(O)c3c1O[C@]14C(=C[C@@H]5C[C@H]1C(C)(C)O[C@@]4(C/C=C(/C)C(=O)O)C5=O)C3=O)C=CC(C)(C)O2 [analog #2, morellic acid]
[1]
  inhibitory activity against E6-caspase 8 binding relative to GA (in words): did not significantly affect the activity

## CC(C)=CCc1c2c(c(O)c3c1OC14C(=CC5CC1C(C)(C)OC4(C/C=C(\C)CO)C5=O)C3=O)C=CC(C)(C)O2 (stereo not drawn) [analog #7, iso morellinol]
[1]
  inhibitory activity against E6-caspase 8 binding relative to GA (in words): did not significantly affect the activity

## CC(C)=CCCC1(C)CC(O)c2c(O)c3c(c(CC=C(C)C)c2O1)OC12C(=CC4CC1C(C)(C)OC2(C/C=C(\C)C(=O)O)C4=O)C3=O (stereo not drawn) [analog #5, neo-gambogic acid]
[1]
  activity against E6-caspase 8 binding, deviation from the parent compound (less active): > 3 logs
[3]
  rank of highest IC50 relative to the parent compound, MTT: fourth

## CC(C)=CCC/C(C)=C/Cc1c(O)c(CC=C(C)C)c2c(c1O)C(=O)C1=C[C@@H]3C[C@H]4C(C)(C)O[C@@](C/C=C(/C)C(=O)O)(C3=O)[C@@]14O2 [analog #3, gambogenic acid]
[1]
  activity against E6-caspase 8 binding, deviation from the parent compound (less active): > 3 logs
[3]
  rank of highest IC50 relative to the parent compound, MTT: third

## CC(C)=CCC[C@]1(C)C=Cc2c(O)c3c(c(CC=C(C)C)c2O1)O[C@]12C(=C[C@@H]4CC1C(C)(C)O[C@@]2(C/C=C(/C)C(N)=O)C4=O)C3=O [analog #4, gambogic amide]
[1]
  inhibitory activity against E6-caspase 8 binding relative to GA (in words): did not significantly affect the activity

## CC(C)=CCC[C@]1(C)C=Cc2c(O)c3c(c(CC=C(C)C)c2O1)O[C@]12C(=C[C@@H]4C[C@H]1C(C)(C)O[C@@]2(C/C=C(/C)C(=O)O)C4=O)C3=O [gambogic acid]
[1]; 11 compounds that passed counter-screening (Supplementary Table 3), read-out: IC50 against E6-Caspase 8 binding
  IC50: 2 µM
[1]; head-to-head comparison gambogic acid vs myricetin (Figure 4A), read-out: IC50 against E6-Caspase 8
  IC50: 1.9 µM
[2]
  IC50: 1.7 µM
[10]
  tolerability in animal studies: relatively tolerable
